# In US20260216294A1, “BETA 2-ADRENERGIC RECEPTOR AGONISTS FOR TREATMENT OR PREVENTION OF MUSCLE WASTING” (ATROGI AB, priority 2023, published 2026):
# Tests used:
# L6-myotubes [1] = experiment: Measurement of intracellular cAMP levels in differentiated L6-myotubes (Biological Example 3); format: cell-based; conditions: 0.25 h
# Method in brief: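 Intracellular cAMP quantified by AlphaScreen after ethanol extraction and lysis of L6 myotubes. Cells were serum-starved overnight, then exposed for 15 min to compound (final 1×10^−5 M) or isoprenaline in IBMX-containing (1 mM) HBSS buffer, pH 7.4.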
# L6-myotubes [2] = experiment: Glucose uptake in differentiated L6-myotubes (Biological Example 2); format: cell-based; conditions: read-out: Biological example 2 (GU)
# Method in brief: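 Uptake was quantified as radioactivity in 0.2 M NaOH lysates after a 10 min pulse of 50 nM ^3H-2-deoxyglucose. The pulse followed two agonist exposures at 1×10^−5 M final (isoprenaline or test compound): 1 h 40 min, then 20 min in glucose-free medium after washing. L6 myotubes had been starved overnight in medium with 0.5% fatty-acid-free BSA.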
# [3] = intracellular cAMP, compound at 10 μM relative to isoproterenol at 10 μM
# [4] = glucose uptake, compound at 10 μM relative to isoproterenol at 10 μM
# [5] = intracellular cAMP in differentiated L6-myotubes, compound at 10 μM, activity relative to isoproterenol at 10 μM
# [6] = glucose uptake in differentiated L6-myotubes, compound at 10 μM, activity relative to isoproterenol at 10 μM
Compound,Emax at 10 µM (L6-myotubes [1]; [3]) [%],Emax at 10 µM (L6-myotubes [2]; [4]) [%],Emax at 10 µM (L6-myotubes [1]; [5]) [%],Emax at 10 µM (L6-myotubes [2]; [6]) [%]
"C[C@H]1CC[C@@H]([C@@H](O)c2ccccc2)N1 (racemic) [Compound 39, Racemic mixture of (R)-[(2R,5R)-5-methyl-2-pyrrolidinyl] phenylmethanol and (S)-[(2S,5S)-5-methyl-2-pyrrolidinyl] phenylmethanol]",< 25,50 to 75,–,–
"CCOC(=O)CO[C@H]1CC[C@H](C(C)(C)NC[C@H](O)c2cncc(F)c2)CC1 [Compound 409, ethyl[[(1R,4r)-4-{1-[(R)-2-(5-fluoro-3-pyridyl)-2-hydroxyethylamino]-1-methylethyl}cyclohexyloxy]]acetate]",–,–,< 25,> 75
"CC1(C)CC[C@H]([C@H](O)c2cccc(O)c2)N1 [Compound 112, m-{(R)-[(R)-5,5-dimethyl-2-pyrrolidinyl] hydroxymethyl}phenol]",< 25,> 75,–,–
"O[C@@H](c1cncc(F)c1)[C@H]1CC[C@@H](Cc2ccc(Cl)cc2)N1 [Compound 403, (S)-{(2R,5S)-5-[(p-chlorophenyl)methyl]-2-pyrrolidinyl}(5-fluoro-3-pyridyl)methanol]",–,–,< 25,50 to 75
"CO[C@H]1CC[C@H](C[C@@H]2CC[C@H]([C@@H](O)c3ccccc3F)N2)CC1 [Compound 336, (S)-[(2R,5S)-5-{[(1r,4S)-4-methoxycyclohexyl]methyl}-2-pyrrolidinyl] (o-fluorophenyl)methanol]",–,–,< 25,25 to 50
"O[C@@H](CNC1(C(F)(F)F)CC1)c1cccc(F)c1 [Compound 118, (R)-1-(m-fluorophenyl)-2-[1-(trifluoromethyl)cyclopropylamino]-1-ethanol]",< 25,50 to 75,–,–
"CC(C)(NC[C@H](O)c1cncc(F)c1)[C@H]1CC[C@H](C(=O)O)CC1 [Compound 390, (1R,4r)-8-[(R)-2-(5-fluoro-3-pyridyl)-2-hydroxyethylamino]-7-hydroxy-p-menthan-7-one]",–,–,< 25,50 to 75
"CC1(C)C[C@H]([C@@H](O)c2ccccc2F)N1 [Compound 203, (S)-[(R)-4,4-dimethyl-2-azetidinyl](o-fluorophenyl)methanol]",–,–,< 25,25 to 50
"O[C@@H](CNCCC[C@H]1CC[C@H](O)CC1)c1cncc(F)c1 [Compound 305, (R)-1-(5-fluoro-3-pyridyl)-2-{3-[(1r,4S)-4-hydroxycyclohexyl]propylamino}-1-ethanol]",–,–,< 25,25 to 50
"Oc1ccc(C(O)CNCCCC2CC2)cc1 (stereo not shown) [Compound 30, 2-(3-cyclopropylpropylamino) -1-(p-hydroxyphenyl)-1-ethanol]",< 25,> 75,–,–
"CO[C@H]1CC[C@H](CNC[C@H](O)c2cccc(F)c2)CC1 [Compound 228, (R)-1-(m-fluorophenyl)-2-({[(1r,4R)-4-methoxycyclohexyl]methyl}amino)-1-ethanol]",–,–,< 25,50 to 75
O=C(N[C@H]1CC[C@@H](CNC[C@H](O)c2cncc(F)c2)CC1)c1ccccc1 [Compound 318],–,–,< 25,50 to 75
"CC(C)(C[C@H]1CC[C@@H](NS(C)(=O)=O)CC1)NC[C@H](O)c1cncc(F)c1 [Compound 468, (R)-2-{1,1-dimethyl-2-[(1s,4S)-4-(mesylamino)cyclohexyl]ethylamino}-1-(5-fluoro-3-pyridyl)-1-ethanol]",–,–,< 25,> 75
CC12CC(C1)[C@H]([C@@H](O)c1cccc(F)c1)N2 [Compound 187],< 25,25 to 50,–,–
"O[C@H](c1cccc(F)c1)C12CCC(CCc3ccc(Cl)cc3)(CC1)N2 [Compound 528, (R)-{4-[2-(p-chlorophenyl)ethyl]-7-azabicyclo[[2.2.1]]hept-1-yl}(m-fluorophenyl)methanol]",–,–,< 25,< 25
"O[C@H](c1cccc(F)c1)C12CCC(COc3ccc(Cl)cc3)(CC1)N2 [Compound 441, (R)-{4-[(p-chlorophenoxy)methyl]-7-azabicyclo[[2.2.1]]hept-1-yl}(m-fluorophenyl)methanol]",–,–,< 25,> 75
"CCCCNCC(O)c1cc[nH]c(=O)c1 (stereo not shown) [Compound 62, 4-[2-(butylamino)-1-hydroxyethyl]-2(1H)-pyridinone]",< 25,25 to 50,–,–
CC1(C)C[C@@H]([C@H](O)c2cncc(F)c2)N1 [Compound 216],–,–,< 25,25 to 50
CC(C)(C[C@H]1CC[C@H](N)CC1)NC[C@H](O)c1cccc(F)c1 [Compound 371],–,–,< 25,> 75
"Oc1ccc(C(O)CNCC2CCCCC2)cc1 (stereo not shown) [Compound 6, 2-[(cyclohexylmethyl)amino]-1-(p-hydroxyphenyl)-1-ethanol]",< 25,> 75,–,–
"CC(C)(C[C@H]1CC[C@@H](NC(=O)OC(C)(C)C)CC1)NC[C@H](O)c1cccc(C#N)n1 [Compound 414, (1R,4s)-4-{2-[(S)-2-(6-cyano-2-pyridyl)-2-hydroxyethylamino]-2-methylpropyl}cyclohexly 2-methyl-2-propanecarbamate]",–,–,< 25,50 to 75

Compound,Emax at 10 µM (L6-myotubes [1]; [3]) [%],Emax at 10 µM (L6-myotubes [2]; [4]) [%],Emax at 10 µM (L6-myotubes [1]; [5]) [%],Emax at 10 µM (L6-myotubes [2]; [6]) [%]
"CCCC12CCC([C@H](O)c3cccc(F)c3)(CC1)N2 [Compound 183, (R)-(m-fluorophenyl)(4-propyl-7-azabicyclo[[2.2.1]]hept-1-yl)methanol]",25 to 50,50 to 75,–,–
"O[C@H](c1cncc(F)c1)C12CCC(CCc3ccc(OC(F)(F)F)cc3)(CC1)N2 [Compound 545, (R)-(5-fluoro-3-pyridyl){4-[2-(p-trifluoromethoxyphenyl)ethyl]-7-azabicyclo[[2.2.1]]hept-1-yl}methanol]",–,–,< 25,< 25
"CC(C)(C)NCC(O)c1ccncc1O (stereo not shown) [Compound 134, 4-[2-(tert-butylamino)-1-hydroxyethyl]-3-pyridinol]",< 25,> 75,–,–
"CCCCNC(C)C(O)c1ccc(O)cc1 (stereo not shown) [Compound 12, 2-(butylamino)-1-(p-hydroxyphenyl)-1-propanol]",< 25,50 to 75,–,–
CCC[C@H]1CCC[C@@H]([C@@H](O)c2cccc(F)c2)N1 [Compound 119],< 25,25 to 50,–,–
CC1(C)CCC[C@H]([C@@H](O)c2cccc(Cl)c2)N1 [Compound 164],< 25,50 to 75,–,–
CC12CC(C1)[C@H]([C@@H](O)c1cccc(Cl)c1)N2 [Compound 208],–,–,< 25,50 to 75
O[C@@H](c1cccc(F)c1)C12CCC(COc3ccc(Cl)cc3)(CC1)N2 [Compound 440],–,–,< 25,> 75
"CO[C@H]1CC[C@@H](C(C)(C)NC[C@H](O)c2cncc(F)c2)CC1 [Compound 252, (R)-1-(5-fluoro-3-pyridyl)-2-{1-methyl-1-[(1s,4S)-4-methoxycyclohexyl]ethylamino}-1-ethanol]",–,–,< 25,< 25
"CC1(C)CC[C@H]([C@@H](O)c2ccccc2F)N1 [Compound 174, (S)-[(R)-5,5-dimethyl-2-pyrrolidinyl](o-fluorophenyl)methanol]",< 25,< 25,–,–
CC(C)(C[C@H]1CC[C@H](NC(=O)C(C)(C)C)CC1)NC[C@H](O)c1cccc(F)c1 [Compound 429],–,–,25 to 50,> 75
"CC(C)(C[C@H]1CC[C@@H](S(N)(=O)=O)CC1)NC[C@H](O)c1cccc(F)c1 [Compound 517, (1S,4s)-4-{2-[(R)-2-(m-fluorophenyl)-2-hydroxyethylamino]-2-methylpropyl} cyclohexanesulfonamide]",–,–,< 25,25 to 50
"CCC[C@@H](C)NC[C@H](O)c1cccc(O)c1 [Compound 28, (R)-2-[(R)-1-methylbutylamino]-1-(m-hydroxyphenyl)-1-ethanol]",50 to 75,> 75,–,–
"Cc1ncccc1[C@@H](O)CNC(C)(C)C [Compound 376, (R)-2-(tert-butylamino)-1-(2-methyl-3-pyridyl)-1-ethanol]",–,–,25 to 50,> 75
"O[C@H](c1cccc(F)c1)C12CCC(COCc3ccc(F)cc3)(CC1)N2 [Compound 439, (R)-(m-fluorophenyl)(4-{[(p-fluorophenyl)methoxy]methyl}-7-azabicyclo[[2.2.1]]hept-1-yl)methanol]",–,–,25 to 50,> 75
CCC[C@H]1CCC[C@H]([C@@H](O)c2cccc(F)c2)N1 [Compound 70],< 25,50 to 75,–,–
CC(=O)N[C@H]1CC[C@@H](CNC[C@H](O)c2cncc(F)c2)CC1 [Compound 310],–,–,< 25,25 to 50
"Cc1c(F)cccc1[C@@H](O)CNC(C)(C)C [Compound 150, (R)-2-(tert-butylamino)-1-(3-fluoro-2-tolyl)-1-ethanol]",25 to 50,> 75,–,–
CNS(=O)(=O)[C@H]1CC[C@H](CC(C)(C)NC[C@H](O)c2cccc(F)c2)CC1 [Compound 476],–,–,25 to 50,> 75
"CC1(C)CCC[C@H]([C@@H](O)c2ccccc2Cl)N1 [Compound 163, (S)-[(R)-6,6-dimethyl-2-piperidyl](o-chlorophenyl)methanol]",< 25,> 75,–,–
